Assay results: the CheMixHub ionic liquid set

Assay: xn = mol fraction of the nth substance listed

CCCCCCCCCCCCCCCC[n+]1ccn(C)c1.[Cl-] + CCCCCCCCCCCC[N+](C)(C)C.[Br-] + O
100 kPa, frequency 0.002 MHz
Conditions	electrical conductivity [S/m]
303.15 K, x1 = 5.946e-05, x2 = 1.478e-05	0.025
303.15 K, x1 = 7.207e-05, x2 = 1.802e-05	0.0286
303.15 K, x1 = 9.712e-05, x2 = 2.433e-05	0.0355
313.15 K, x1 = 6.13e-06, x2 = 2.433e-05	0.0202
313.15 K, x1 = 7.75e-06, x2 = 1.802e-05	0.0184
313.15 K, x1 = 2.09e-05, x2 = 2.34e-06	0.0146
323.15 K, x1 = 9.19e-06, x2 = 2.126e-05	0.0259

CCCCn1cc[n+](CCOCC[n+]2ccn(CCCC)c2)c1.O=S(=O)([N-]S(=O)(=O)C(F)(F)F)C(F)(F)F.O=S(=O)([N-]S(=O)(=O)C(F)(F)F)C(F)(F)F + CC[n+]1ccn(C)c1.N#C[N-]C#N + O=S(=O)([N-]S(=O)(=O)C(F)(F)F)C(F)(F)F.[Li+]
100 kPa, x1 = 0.1503, x2 = 0.7472
Conditions	electrical conductivity [S/m]
298 K	0.512
303 K	0.654
313 K	0.829
323 K	1.11
333 K	1.45
343 K	1.84

CCCC[n+]1ccn(C)c1.F[P-](F)(F)(F)(F)F + CCOC(C)=O
298.15 K
Conditions	electrical conductivity, x2 = 0.2746 [S/m]	electrical conductivity, x2 = 0.4156 [S/m]	electrical conductivity, x2 = 0.7532 [S/m]	electrical conductivity, x2 = 0.8821 [S/m]	viscosity, x2 = 0.2746 [mPa·s]	viscosity, x2 = 0.4156 [mPa·s]	viscosity, x2 = 0.6524 [mPa·s]	viscosity, x2 = 0.7532 [mPa·s]	viscosity, x2 = 0.8821 [mPa·s]
101 kPa	0.452	0.67	1.12	0.726	60.7	27.8	–	3.33	1.43
101.3 kPa	–	–	–	–	–	–	6.22	–	–

CCCC[n+]1ccccc1.O=S(=O)([N-]S(=O)(=O)C(F)(F)F)C(F)(F)F + Cc1ccccc1
100 kPa
Conditions	viscosity [mPa·s]
293.15 K, x2 = 0.3972	22.63
293.15 K, x2 = 0.6068	10
298.15 K, x2 = 0	52.9
298.15 K, x2 = 0.5025	13.64
303.15 K, x2 = 0.2939	21.68
308.15 K, x2 = 0.3972	14.21
308.15 K, x2 = 0.5025	10.54
313.15 K, x2 = 0.3972	12.3
313.15 K, x2 = 0.6068	6.62

CCCCC[P+](CC)(CC)CC.O=S(=O)([N-]S(=O)(=O)C(F)(F)F)C(F)(F)F + O=S(=O)([N-]S(=O)(=O)C(F)(F)F)C(F)(F)F.[Li+]
101.33 kPa
Conditions	electrical conductivity [S/m]	viscosity [mPa·s]
300.3 K, x2 = 0.39	–	1100
324.2 K, x2 = 0.39	0.081	200
330.2 K, x2 = 0.39	0.11	150
336.3 K, x2 = 0.25	0.37	42
341.2 K, x2 = 0.25	–	34
348.2 K, x2 = 0.25	0.52	27
361.2 K, x2 = 0.39	–	37
361.3 K, x2 = 0.39	0.36	–

CCCC[n+]1cccc(C)c1.O=S(=O)([N-]S(=O)(=O)C(F)(F)F)C(F)(F)F + CCO
298.15 K, 101.3 kPa
Conditions	electrical conductivity [S/m]
x2 = 0	0.273
x2 = 0.4364	0.642
x2 = 0.6597	0.93
x2 = 0.8246	1.07

CC#N + Cn1cc[n+](CCCN)c1.F[B-](F)(F)F
101 kPa, x2 = 0
Conditions	viscosity [mPa·s]
288.15 K	0.439
293.15 K	0.403
298.15 K	0.371
303.15 K	0.345
308.15 K	0.322
313.15 K	0.3
318.15 K	0.282
323.15 K	0.265

CCCC[n+]1ccn(C)c1.O=S(=O)([N-]S(=O)(=O)C(F)(F)F)C(F)(F)F + ClCCl
Conditions	viscosity [mPa·s]
298 K, 101 kPa, x2 = 0	50.4

O=C1CCCCCO1 + CCCC[n+]1ccn(C)c1.O=S(=O)([N-]S(=O)(=O)C(F)(F)F)C(F)(F)F
electrical conductivity [S/m], 100 kPa, frequency 0.01 MHz
Conditions	293.15 K	298.15 K	303.15 K	308.15 K	313.15 K	318.15 K	323.15 K
x2 = 0.05	0.137	0.15	0.162	0.175	0.188	0.201	0.209
x2 = 0.1002	0.269	0.294	0.319	0.338	0.364	0.393	0.421
x2 = 0.1505	0.378	0.414	0.454	0.485	0.521	0.565	0.605
x2 = 0.1985	0.504	0.548	0.598	0.649	0.706	0.772	0.847
x2 = 0.3001	0.589	0.647	0.715	0.779	0.855	0.943	1.03
x2 = 0.3987	0.567	0.64	0.721	0.803	0.894	0.983	1.08
x2 = 0.4903	0.526	0.594	0.674	0.766	0.856	0.955	1.05
x2 = 0.6309	0.451	0.523	0.607	0.688	0.774	0.872	0.969
x2 = 0.6988	0.418	0.489	0.564	0.645	0.73	0.829	0.928
x2 = 0.8042	0.374	0.441	0.515	0.598	0.689	0.783	0.885
x2 = 0.883	0.356	0.417	0.489	0.573	0.665	0.759	0.862

CC(=O)c1ccccc1 + CCOS(=O)(=O)[O-].CC[n+]1ccn(C)c1
100 kPa
Conditions	viscosity [mPa·s]
293.15 K, x1 = 0.7973	4.3
303.15 K, x1 = 0.2	27.1
303.15 K, x1 = 0.4002	16.4
303.15 K, x1 = 0.7973	5.3
303.15 K, x1 = 0.9502	2.48
303.15 K, x1 = 1	1.65
313.15 K, x1 = 0.6921	5.6
313.15 K, x1 = 0.8999	3.3
313.15 K, x1 = 0.9502	2
313.15 K, x1 = 1	1.37
323.15 K, x1 = 0.3008	10.7
323.15 K, x1 = 0.5999	5.8
323.15 K, x1 = 0.8999	1.94
323.15 K, x1 = 1	1.17
333.15 K, x1 = 0.0505	16.2
333.15 K, x1 = 0.0997	14.2
